In experiment [1] the target is angiotensin II receptor (rat uterine membranes). The experiment is described as follows: Angiotensin II binding assay (125I-angiotensin II, rat uterine membranes). As to the method: Other chemicals were obtained from Sigma Chemical Co.
Rat uterine membranes were prepared from fresh tissue. All procedures were carried out at 4° C. Uteri were stripped of fat and homogenized using a Polytron for 25 sec in 20 volumes of ice-cold Dulbecco's phosphate-buffered saline pH 7.5 (Gibso Labs) containing 5 mM EDTA. The homogenate was centrifuged at 1500× g for 20 min., and the supernatant was recentrifuged at 100,000× g for 60 min. The pellet was resuspended in buffer consisting of 2 mM EDTA and 50 mM Tris-HCl, pH 7.5 to a final protein concentration of 4 mg/ml.
The reaction was initiated by the addition of 50 μg of membrane protein and the mixture was incubated at 25° C. for 30 min. The incubation was terminated with ice-cold 50 mM Tris-HCl; pH 7.5 and the mixture was filtered to separate membrane-bound labelled peptide from the free ligand. The incubation tube and filter were washed with ice-cold buffer. Filters were assayed for radioactivity in a Micromedic gamma counter. Nonspecific binding was defined as binding in the presence of 10 μM of unlabelled AII. Specific binding was calculated as total binding minus nonspecific binding. Binding data was analyzed by a nonlinear least-squares curve fitting program.

Experiment [2] concerns the target T1, angiotensin II (AII) contraction of rabbit aortic rings (Oryctolagus cuniculus, UniProt P34976).
T1 construct: The thoracic aorta was removed, cleaned of adherent fat and connective tissue and then cut into 3-mm ring segments; from tissue; host or cells: rabbit thoracic aorta rings, endothelium removed
T1 sequence (P34976 1-359): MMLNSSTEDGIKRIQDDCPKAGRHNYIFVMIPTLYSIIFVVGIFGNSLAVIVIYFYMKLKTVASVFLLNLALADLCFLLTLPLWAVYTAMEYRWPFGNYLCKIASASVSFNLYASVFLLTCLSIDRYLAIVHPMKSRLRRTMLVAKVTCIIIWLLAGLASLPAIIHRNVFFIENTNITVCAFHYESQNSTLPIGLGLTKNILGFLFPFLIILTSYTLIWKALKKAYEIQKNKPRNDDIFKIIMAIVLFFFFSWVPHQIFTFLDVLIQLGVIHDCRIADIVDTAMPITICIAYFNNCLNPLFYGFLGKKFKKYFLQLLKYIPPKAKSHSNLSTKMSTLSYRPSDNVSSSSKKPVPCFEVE
The experiment is described as follows: In vitro myotropic screening assay for AII antagonists in rabbit aortic rings. Format: cell-based. The settings on record: pA2 determined according to Schild. The procedure:
The compounds of the invention were tested for agonist and antagonist activity in rabbit aortic rings. Male New Zealand white rabbits (2-2.5 kg) were sacrificed using an overdose of pentobarbital and exsanguinated via the carotid arteries. The thoracic aorta was removed, cleaned of adherent fat and connective tissue and then cut into 3-mm ring segments. The endothelium was removed from the rings by gently sliding a rolled-up piece of filter paper into the vessel lumen. The rings were then mounted in a water-jacketed tissue bath, maintained at 37° C., between a moveable and a fixed stainless steel wire, with the moveable end attached to an FT03 Grass transducer coupled to a Model 7D Grass Polygraph for recording isometric force responses. […] The preparations were equilibrated for one hour before approximately one gram of passive tension was placed on the rings. For the agonist assay, the rings were exposed to increasing concentrations of the test compound, at 30 minute intervals, during which time the tissue was washed three times with 20 ml of fresh Krebs solution. For the measurement of antagonistic activity, paired rings from the same rabbits were used; one was exposed to increasing concentrations of AII (at 30 minute intervals), and a second ring was exposed to increasing concentrations of AII in the presence of the test compound which was added five minutes prior to the addition of AII. The concentration response curves for AII in the presence of the antagonist were evaluated in terms of the percent of the maximal contraction of the control ring exposed only to AII. pD2 values for AII were calculated from the AII concentration response curves while pA2s were determined according to Schild.

The subject of experiment [3] is AII pressor response. Description: In vivo pressor screening assay for AII antagonists, intravenous administration. The settings on record: rat, @ 30 mg. The arrangement: species or system rat (male Sprague Dawley). As to the method:
(§1) Male Sprague Dawley rats weighing […] were anesthetized with Inactin (100 mg/kg), a catheter was inserted into the trachea and the carotid artery and the jugular vein were cannulated. Arterial pressure was measured from the carotid artery cannula and continuously recorded (Gould, Cleveland, OH). The jugular vein cannula was used for injections of angiotensin II (AII), mecamylamine, atropine and the test compound. The animal was allowed to equilibrate for 30 minutes. Mecamylamine (3 mg/kg, 0.3 mg/kg) and atropine (400 μg/kg, 0.3 ml/kg) were then given iv to produce ganglion blockage. These compounds were administered every 90 minutes throughout the screening procedure. Angiotensin II was given in bolus doses ([…] in saline with 0.5% bovine serum albumin, 0.1 ml/kg) every 10 minutes consecutively three times or until the increase in arterial pressure produced was within 3 mm Hg for two consecutive injections. The last two AII injections are averaged and are referred to as the control response to AII. […] AII injections were then given 1, 5, 10, 20, 30, 45, 60, 75, 90, and 120 minutes after administration of the test compound and the response of arterial pressure monitored. […]

The test system of experiment [4] is AII pressor response. The experiment is described as follows: In vivo AII pressor assay, intraduodenal administration. Conditions: rat, @ 100 mg. The arrangement: species or system rat (male Sprague Dawley). As to the method: as §1, with “injections.” for “injections. The last two AII injections are averaged and are referred to as the control response to AII.”
Compounds were tested for absorption from the gastrointestinal tract following intraduodenal administration. […] The response to AII was tested at the same time points following administration of the test compound except that the 1 minute reading was eliminated. […]

For the molecule `CCCCc1nc2cc(C)c(=O)c(C)cc2n1Cc1ccc(-c2ccccc2C(=O)O)cc1` [Example 1, 4'-[[5,7-dimethyl-2-butyl-6(1H)-cycloheptimidazolon-1-yl]methyl]-[1,1'-biphenyl]-2-carboxylic acid], the IC50 (usually the concentration needed to halve the response being measured) in experiment [1] (IC50, 125I-AII, rat uterine membranes, 25° C., 30 min) came to 800 nM; in experiment [1] (meaning not explained) it was 250 nM. For the same molecule, the Kb (as a rule, the equilibrium dissociation constant of an antagonist, usually derived from a functional assay) in experiment [2] was 1000 nM. The “Antagonism of the AII pressor response, maximal inhibition, I.V.” value in the experiment with AII pressor response [3] is 72%. The “Antagonism of the AII pressor response, maximal inhibition, ID” value with AII pressor response [4] was 72%.

The values are drawn from patent publication US5104891A, “Cycloheptimidazolone compounds as angiotensin II antagonists for control of hypertension” (G. D. Searle & Co., priority 1989, dated 1992).
